Measured values taken from article PMC8719441, “Tonoplast-Localized Theanine Transporter CsCAT2 May Mediate Theanine Storage in the Root of Tea Plants (Camellia sinensis L.)” (Frontiers in Plant Science, 2021).

B1: CsCAT2 (Camellia sinensis) (protein)
chain: MGFRCDSQNDGGACPWTCGFKGLIRRKQVDSIHAKSSGSGHHQLAKELSVFHLIAIGVGSTIGAGVYILVGTVAREHSGPALTFSFLIAGIAAALSAFCYAELASRCPSAGSAYHYSYICVGEGVAWLIGWALILEYTIGGSAVARGISPNLALLFGGADSLPFFLARQHLPGLDIVVDPCAALLVIVVTGLLCVGIKESTLVQSIVTTANVCAMLFVIIAGGYLGFKSGWVGYELPVGYFPFGVDGMLAGAATVFFAYIGFDSVASTAEEVKNPQRDLPLGIAAALSICCMLYMLVSVVIVGLVPYYAMDPDTPISSAFASHGMQWAAYIITAGATTALCSTLMGSMLPQPRILMAMSRDGLLPSIFSDVNKRTQVPIKSTVITGVVAAILAFIMDVEQLAGMVSVGTLLAFTMVAISVLILRYVPPDEVPIPSSLQESIDSVSLRYSTSNDNIEEEKPKDHIGSSTQSTRLLLGKVDRPIAYPLIPKQAATILNDNRRKIAGWTIMFTCVGVLLLTSAASSVGLLPSYFRFGVCGIGVVLILSGLVVLTCIDQDDARHSFGHTGGFICPFVPLLPIACVLINVYLLINLGSATWTRVSIWLLIGVLVYAFYGRTHSSLKDAVYVPATHVEEIYRSSENSLP
notes: no tag mentioned

substrate: CCNC(=O)CC[C@H](N)C(=O)O; experiment: cells, lysate or membranes; type: cell-based, Camellia sinensis; conditions: 0.09375-8 mM theanine, 0-20 min, after 2 h nitrogen starvation; H+-coupled

Molecule	Km [mM]
B1	0.45

target: T1, CsCAT2 (Camellia sinensis, UniProt A0A2R3U877); experiment: competition with theanine uptake in yeast […]Δ[…]α-CsCAT2, HPLC-UV; growth on sole nitrogen source; type: cell-based; conditions: 200 μM theanine, 10 min
T1 construct: gene CAT2; no tag mentioned

Molecule	% theanine uptake at 2 mM competitor
CC(C)[C@H](N)C(=O)O [valine]	CsCAT2's capacity to transport theanine was significantly suppressed by these amino acids
NC(=O)CC[C@H](N)C(=O)O [glutamine]	CsCAT2's capacity to transport theanine was significantly suppressed by these amino acids
N[C@@H](CC(=O)O)C(=O)O [aspartic acid]	CsCAT2's capacity to transport theanine was significantly suppressed by these amino acids
N[C@@H](CCC(=O)O)C(=O)O [glutamate]	CsCAT2's capacity to transport theanine was significantly suppressed by these amino acids
C[C@H](N)C(=O)O [alanine]	CsCAT2's capacity to transport theanine was significantly suppressed by these amino acids
